Consider eight compounds from ChEMBL document CHEMBL1125482, “Pharmacokinetics of catechol cephalosporins. The effect of incorporating substituents into the catechol moiety on pharmacokinetics in a marmoset model” (J Med Chem, 1992).

≈ marks a conversion by molar mass, not a printed value.

A short description of data set [1]: Urinary recovery in marmosets (IV dose). The data set is classed as ADME, organism-based. The following applies: callithrix, urine, read-out: Recovery.
Data set [2] is filed under the species Homo sapiens. Nature of the data set: Compound was tested for serum protein binding in human blood. In kind it is functional.
The test system of data set [3] is Mus musculus. Briefly: Compound was evaluated in vivo for antibacterial activity against Pseudomonas aeruginosa (strain 101010) in mice. The following applies: read-out: PD50. The data set is classed as functional.
For a further data set, the species on record is Canis familiaris. Particulars: dog, in vivo, iv.
The nature of a further data set: in vivo. The following applies: callithrix, serum, iv.
Data set [4] relates to Pseudomonas aeruginosa. Nature of the data set: Compound was tested for antimicrobial activity against Pseudomonas aeruginosa constitutive derepressed type I beta-lactamase producer (18SH) strain. In kind it is functional.
Data set [5] concerns Escherichia coli. Nature of the data set: microbe, parasite or virus in culture.
Description: Compound was tested for antimicrobial activity against Escherichia coli DC0 strain (parent organism)
Data set [6] has as its system Escherichia coli. Nature of the data set: microbe, parasite or virus in culture. The source holds these as a separate data set.
Description: Compound was tested for antimicrobial activity against Escherichia coli DC2 strain (permeability mutant)
The subject of data set [7] is Enterobacter cloacae. Briefly: microbe, parasite or virus in culture.
Description: Compound was tested for antimicrobial activity against Enterobacter cloacae constitutive derepressed type I beta-lactamase producer (P99+) strain
In data set [8] the test system is Enterobacter cloacae. Nature of the data set: microbe, parasite or virus in culture. The source holds these as a separate data set.
Description: Compound was tested for antimicrobial activity against Enterobacter cloacae inducible type I beta-lactamase producer (P99-) strain
The test system of data set [9] is Pseudomonas aeruginosa. Briefly: microbe, parasite or virus in culture.
Description: Compound was tested for antimicrobial activity against Pseudomonas aeruginosa PU21 strain
Data set [10] has as its system Staphylococcus aureus. Briefly: microbe, parasite or virus in culture.
Description: Compound was tested for antimicrobial activity against Staphylococcus aureus Oxford strain
For data set [11], the system named is Staphylococcus aureus. Nature of the data set: microbe, parasite or virus in culture. The source holds these as a separate data set.
Description: Compound was tested for antimicrobial activity against Staphylococcus aureus penicillin sensitive Staphylococcus aureus (147N) strain
In data set [12] the test system is Pseudomonas aeruginosa. Briefly: microbe, parasite or virus in culture. This is another data set of the same source.
Data set [13] deals with Mus musculus. Briefly: Compound was evaluated in vivo for antibacterial activity against Pseudomonas aeruginosa (strain 101010) in mice; range 1.0-6.0 mg/Kg. In kind it is functional.
Data set [14] is filed under the species Homo sapiens. Briefly: Compound is evaluated for serum protein binding in human blood […]. In kind it is functional.

Description for in vivo: Serum T1/2 in marmosets (IV dose)
Description for physchem: Dissociation constant (pKa)

One may read the half-life as the time needed for the level to fall by half in the phase considered. Lower therefore signals rapid decline. The term pKa denotes the negative logarithm of the acid dissociation constant. As to `CC(C)(O/N=C(\C(=O)N[C@@H]1C(=O)N2C(C(=O)O)=C(CNC(=O)c3cc(Cl)c(O)c(O)c3Cl)CS[C@H]12)c1csc(N)n1)C(=O)O`, in data set [1], the dose excreted worked out at 16.2%. Moreover, the Activity in the data set listed under Homo sapiens [2] came out at 98.7%. Further, the ED50 with Mus musculus [3] is 0.003 mg/kg. Besides, in the data set filed under Canis familiaris, the AUC was found to be 461 mg/h/L. In the data set “in vivo”, this compound showed a half-life of 8.2 h. Moreover, in “physchem”, the pKa came out at 6.3.

On to `CC(C)(O/N=C(\C(=O)N[C@@H]1C(=O)N2C(C(=O)O)=C(CNC(=O)c3ccc(O)c(O)c3)CS[C@H]12)c1csc(N)n1)C(=O)O`, for which the dose excreted in data set [1] was 44.8%. This compound showed an Activity in the data set filed under Homo sapiens [2] of 96.3%. The MIC was 0.06 µg/mL (≈ 0.0967 µM) against Pseudomonas aeruginosa [4]; less than 0.008 µg/mL against Escherichia coli [5]; 0.008 µg/mL (≈ 0.0129 µM) against Escherichia coli [6]; 16 µg/mL (≈ 25.8 µM) against Enterobacter cloacae [7]; 0.0125 µg/mL (≈ 0.0201 µM) in the data set with Enterobacter cloacae [8]; 0.015 µg/mL (≈ 0.0242 µM) in the data set with Pseudomonas aeruginosa [9]. The results for the MIC in the data set with Staphylococcus aureus [10] and against Staphylococcus aureus [11] were 8 µg/mL (≈ 12.9 µM) and 16 µg/mL (≈ 25.8 µM), respectively. The compound also came in with an AUC in the data set filed under Canis familiaris of 27.2 mg/h/L. Also, the half-life in the data set “in vivo” is 1.25 h. In the data set “physchem”, this compound registered a pKa of 8.5.

Consider `CC(C)(O/N=C(\C(=O)N[C@@H]1C(=O)N2C(C(=O)O)=C(CNC(=O)c3cc(O)c(O)c(C#N)c3)CS[C@H]12)c1csc(N)n1)C(=O)O`, for which the dose excreted in data set [1] came to 8.7%. The same compound registered an Activity in the data set listed under Homo sapiens [2] of 96.7%. Also, in the data set on Mus musculus [3], the ED50 stood at 0.013 mg/kg. Moreover, in the data set listed under Canis familiaris, the AUC came to 394.5 mg/h/L. In the data set “in vivo”, this compound showed a half-life of 5.3 h. This compound registered a pKa in “physchem” of 5.5.

As to `CC(C)(O/N=C(\C(=O)N[C@@H]1C(=O)N2C(C(=O)O)=C(CNC(=O)c3cc(O)c(O)c(Br)c3)CS[C@H]12)c1csc(N)n1)C(=O)O`, the dose excreted in [1] is 13.9%. The compound also came in with an Activity in the data set listed under Homo sapiens [2] of 99.2%. In the data set with Mus musculus [3], the ED50 worked out at 0.024 mg/kg. The AUC in the data set filed under Canis familiaris amounted to 137.1 mg/h/L. The compound also showed a half-life in “in vivo” of 2.9 h. Also, in the data set “physchem”, the pKa was determined as 6.9. The MIC against Enterobacter cloacae [7] is 2 µg/mL (≈ 2.86 µM); against Enterobacter cloacae [8] it was 0.03 µg/mL (≈ 0.0429 µM); against Pseudomonas aeruginosa [9], less than 0.008 µg/mL; against Pseudomonas aeruginosa [12], 0.015 µg/mL (≈ 0.0214 µM); against Staphylococcus aureus [10], 16 µg/mL (≈ 22.9 µM); in the data set with Staphylococcus aureus [11], 16 µg/mL (≈ 22.9 µM).

Take `CCn1cc(C(=O)NCC2=C(C(=O)O)N3C(=O)[C@@H](NC(=O)/C(=N\OC(C)(C)C(=O)O)c4csc(N)n4)[C@H]3SC2)c(=O)c2cc(O)c(O)cc21`: the dose excreted in [1] stood at 17.5%. The Activity in the data set listed under Homo sapiens [2] is 99%. Also, the ED50 in the data set on Mus musculus [3] is 0.01 mg/kg. The same compound came in with an AUC in the data set filed under Canis familiaris of 238.5 mg/h/L. In addition, in “in vivo”, the half-life is 3.5 h. Further, in the data set “physchem”, the pKa was determined as 7.2. Also, the MIC in the data set on Escherichia coli [5] is less than 0.008 µg/mL; in the data set with Escherichia coli [6] it was 0.008 µg/mL (≈ 0.0112 µM); in the data set on Enterobacter cloacae [7], 0.25 µg/mL (≈ 0.349 µM); against Enterobacter cloacae [8] it was 0.06 µg/mL (≈ 0.0838 µM); against Pseudomonas aeruginosa [9], 0.06 µg/mL (≈ 0.0838 µM); against Pseudomonas aeruginosa [12] it was less than 0.008 µg/mL. The MIC in the data set on Staphylococcus aureus [10] and against Staphylococcus aureus [11] was 16 µg/mL (≈ 22.4 µM) throughout.

For the compound `CC(C)(O/N=C(\C(=O)N[C@@H]1C(=O)N2C(C(=O)O)=C(CNC(=O)c3cc(O)c(O)c(Cl)c3)CS[C@H]12)c1csc(N)n1)C(=O)O`, in the data set with Mus musculus [3], the ED50 is 0.004 mg/kg. In the data set listed under Canis familiaris, this compound registered an AUC of 638.3 mg/h/L. In the data set “in vivo”, this compound had a half-life of 4.6 h. Also, the pKa in the data set “physchem” amounted to 7.

The compound `CC(C)(O/N=C(\C(=O)N[C@@H]1C(=O)N2C(C(=O)[O-])=C(C[n+]3ccccc3)CS[C@H]12)c1csc(N)n1)C(=O)O` [CEFTAZIDIME] showed a PD50 in the data set on Mus musculus [13] of 1 µg/mL. In the data set listed under Canis familiaris, this compound came in with an AUC of 14 mg/h/L. The compound further showed a half-life in “in vivo” of 0.7 h. Besides, the MIC against Escherichia coli [5] was 0.125 µg/mL (≈ 0.229 µM); with Escherichia coli [6] it was 0.06 µg/mL (≈ 0.11 µM); in the data set on Enterobacter cloacae [7], 32 µg/mL (≈ 58.5 µM); with Enterobacter cloacae [8] it was 0.125 µg/mL (≈ 0.229 µM); in the data set on Pseudomonas aeruginosa [9], 1 µg/mL (≈ 1.83 µM); against Pseudomonas aeruginosa [12] it was 16 µg/mL (≈ 29.3 µM). The MIC with Staphylococcus aureus [10] was 4 µg/mL (≈ 7.32 µM); against Staphylococcus aureus [11], 8 µg/mL (≈ 14.6 µM).

`CO/N=C(\C(=O)N[C@@H]1C(=O)N2C(C(=O)O)=C(CSc3nc(=O)c(O)nn3C)CS[C@H]12)c1csc(N)n1` [CEFTRIAXONE]: the dose excreted in data set [1] is 25.4%. The compound also displayed an Activity in the data set filed under Homo sapiens [14] of 94.5%.
